Columns and labels:
[1] = molecular target: wild-type opsin (Homo sapiens, UniProt P08100); experiment: 9-cis-retinal binding to opsin; details: 3.0 μM purified wild-type opsin
[2] = test system: opsin; details: cited from earlier work
[3] = test system: P23H, E181K and T17M rhodopsin; details: cells; cited from earlier work
[4] = test system: P23H Rho transgenic rats; details: cited from earlier work
[5] = test system: P23H rhodopsin; details: P23H knock-in mice; cited from earlier work

With `CC1=C(/C=C/C(C)=C\C=C\C(C)=C\C=O)C(C)(C)CCC1` [9-cis-retinal] as the molecule, how does the “concentration at which opsin was saturated” value [1] read?
Its value is 5 µM.

What does the source list for `CC(=C/C(=O)O)/C=C/C=C(\C)C1C=C2C(C)(C)CCCC2(C)O1` (stereo not drawn) [13-cis-5,8-ERA]?
competition with 9-cis-retinal for binding to opsin [2]: appeared to compete with 9-cis-retinal for binding to opsin; folding and transport of rhodopsin mutants [3]: more effective in promoting the folding and transport of the P23H and E181K mutations than it was for the T17M mutation

Which results are given for `CN(C)C(=N)N=C(N)N` [metformin]?
retinal degeneration [4]: increased retinal degeneration; transport of P23H rhodopsin to outer segments [5]: increased transport of P23H rhodopsin to outer segments

Reference: article PMC6910612 (Translational Vision Science & Technology, 2019)
